Test results from patent US10596168B2, “Antagonists of the thyroid-stimulating hormone receptor (TSHR)” (Forschungsverbund Berlin e.V., priority 2016, dated 2020).
Values joined by “and” are separate entries in the source; they are usually repeats but may differ in a detail not shown here. Identical values can stand only once.

Columns and labels:
Type in all cases: cell-based
TSHR [1] = target: T1, TSHR (Homo sapiens, UniProt P16473); assay: cAMP accumulation radioimmunoassay (RIA), inhibition of TSH-induced cAMP production in HEK-293 cells stably expressing TSHR; parameters: antagonistic activity (% inhibition): concentration or dose not given beside the values; conditions: for Antagonistic effect (cAMP inhibition) on TSHR: 50 μM together with the respective agonist, RIA, HEK-293; for Mode of antagonism vs. TSH (Schild analysis): bTSH dose response with increasing antagonist concentrations, wt TSHR; for antagonistic activity (% inhibition): inhibiting cAMP stimulation by TSH, radioimmunoassay; for IC50: secondary screen (RIA), dose-dependent inhibition of cAMP production caused by TSH (EC80 value), HEK-293-TSHR
T1 construct: expressed in transfected cells
T1 sequence (P16473 21-764): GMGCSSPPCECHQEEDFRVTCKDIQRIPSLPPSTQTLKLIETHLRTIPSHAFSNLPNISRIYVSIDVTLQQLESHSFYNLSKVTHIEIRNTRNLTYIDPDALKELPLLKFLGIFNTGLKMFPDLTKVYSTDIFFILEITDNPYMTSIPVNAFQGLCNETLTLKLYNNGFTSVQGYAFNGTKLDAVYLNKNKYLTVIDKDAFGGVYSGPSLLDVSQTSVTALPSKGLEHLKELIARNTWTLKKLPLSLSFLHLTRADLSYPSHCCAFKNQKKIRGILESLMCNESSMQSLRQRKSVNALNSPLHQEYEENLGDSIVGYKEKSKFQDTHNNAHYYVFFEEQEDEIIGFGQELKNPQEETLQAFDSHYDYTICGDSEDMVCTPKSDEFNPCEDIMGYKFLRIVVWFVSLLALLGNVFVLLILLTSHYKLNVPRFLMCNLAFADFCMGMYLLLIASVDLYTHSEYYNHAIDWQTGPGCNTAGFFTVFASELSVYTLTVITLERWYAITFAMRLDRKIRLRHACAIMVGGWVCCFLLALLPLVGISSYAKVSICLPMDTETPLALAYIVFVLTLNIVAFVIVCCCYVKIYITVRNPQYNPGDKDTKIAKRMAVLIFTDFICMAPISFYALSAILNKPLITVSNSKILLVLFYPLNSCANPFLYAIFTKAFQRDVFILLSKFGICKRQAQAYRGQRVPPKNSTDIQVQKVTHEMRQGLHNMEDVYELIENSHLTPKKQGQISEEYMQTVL
Method: (§1) HEK-293 cells stably expressing TSHR, FSHR, LHGCR or CRF1R were cultured for 48 h and stimulated for 1 h at 37° C. with stimulation buffer (DMEM supplemented with 10 mM HEPES, 0.5% BSA, 0.25 mM 3-isobutyl-1-methylxanthine) containing the ligands as indicated. After stimulation medium was aspirated and reactions were stopped by lysis of the cells with 0.1% trifluoroacetic acid, 0.005% Triton X-100 for 30 min at 4° C. Supernatants were collected and heated at 95° C. for 10 min, dried in a rotation vacuum concentrator (Alpha-RCV, Christ) and finally stored at −20° C. until use. After reconstitution and acetylation of the samples (Jäschke et al. 2006), the cAMP content was determined using cAMP-^125I-tyrosyl methyl ester (10,000 cpm, IBL) and polyclonal rabbit anti cAMP antibodies. The radioactivity of the precipitate was determined in a γ-counter.
For the Secondary Screening cAMP accumulation was measured by radioimmunoassay (RIA) in HEK-293-TSHR cells as described before.
For the secondary screening we used a very sensitive in vitro technique, the radioimmunoassay. This assay was established and performed in HEK-293 cell line stably expressing TSHR.
Therefore RIA was used to measure the cAMP accumulation upon stimulation with TSH (EC80 value) and confirmed the desired effect for S4 and S9 with a clear decrease of cAMP production.

FSHR = target: T2, FSHR (Homo sapiens, UniProt P23945); assay: Selectivity test: cAMP RIA in HEK-293 cells stably expressing FSHR; conditions: 50 μM together with the respective agonist
T2 construct: expressed in transfected cells
T2 sequence (P23945 18-695): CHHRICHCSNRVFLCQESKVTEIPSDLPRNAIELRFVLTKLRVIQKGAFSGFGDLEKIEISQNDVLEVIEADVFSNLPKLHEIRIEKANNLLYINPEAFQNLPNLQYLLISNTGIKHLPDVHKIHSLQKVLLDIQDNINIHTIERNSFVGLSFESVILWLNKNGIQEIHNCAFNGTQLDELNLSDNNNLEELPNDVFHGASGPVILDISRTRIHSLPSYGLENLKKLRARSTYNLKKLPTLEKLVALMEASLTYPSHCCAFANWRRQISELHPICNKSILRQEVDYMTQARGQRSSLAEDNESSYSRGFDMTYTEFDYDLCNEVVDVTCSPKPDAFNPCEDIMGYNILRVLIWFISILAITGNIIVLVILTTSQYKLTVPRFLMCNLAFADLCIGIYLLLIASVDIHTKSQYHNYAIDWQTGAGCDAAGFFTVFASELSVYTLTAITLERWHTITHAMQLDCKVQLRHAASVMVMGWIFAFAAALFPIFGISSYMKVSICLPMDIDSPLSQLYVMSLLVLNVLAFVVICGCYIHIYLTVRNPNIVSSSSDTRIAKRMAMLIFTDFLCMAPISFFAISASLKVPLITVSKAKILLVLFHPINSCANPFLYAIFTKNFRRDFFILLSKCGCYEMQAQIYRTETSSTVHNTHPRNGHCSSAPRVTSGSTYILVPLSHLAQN
Method: as §1
(§2) The antagonistic activity of compounds S4, S9, S37 and as reference compound, the micromolar inverse agonist 2-7 (Neumann et al. 2010) were tested on homologous members of the glycoprotein hormone receptor family, FSHR and LHCGR. […] All receptors were stably expressed in HEK-293 cells and the impact of each substance was measured upon administration of 50 μM together with the respective agonist. cAMP accumulation was quantified by RIA. The antagonistic potential of each compound was calculated. […]

LHCGR = target: T3, LHCGR (Homo sapiens, UniProt P22888); assay: Selectivity test: cAMP RIA in HEK-293 cells stably expressing LHCGR; conditions: 50 μM together with the respective agonist
T3 construct: expressed in transfected cells
T3 sequence (P22888 27-699, species assumed): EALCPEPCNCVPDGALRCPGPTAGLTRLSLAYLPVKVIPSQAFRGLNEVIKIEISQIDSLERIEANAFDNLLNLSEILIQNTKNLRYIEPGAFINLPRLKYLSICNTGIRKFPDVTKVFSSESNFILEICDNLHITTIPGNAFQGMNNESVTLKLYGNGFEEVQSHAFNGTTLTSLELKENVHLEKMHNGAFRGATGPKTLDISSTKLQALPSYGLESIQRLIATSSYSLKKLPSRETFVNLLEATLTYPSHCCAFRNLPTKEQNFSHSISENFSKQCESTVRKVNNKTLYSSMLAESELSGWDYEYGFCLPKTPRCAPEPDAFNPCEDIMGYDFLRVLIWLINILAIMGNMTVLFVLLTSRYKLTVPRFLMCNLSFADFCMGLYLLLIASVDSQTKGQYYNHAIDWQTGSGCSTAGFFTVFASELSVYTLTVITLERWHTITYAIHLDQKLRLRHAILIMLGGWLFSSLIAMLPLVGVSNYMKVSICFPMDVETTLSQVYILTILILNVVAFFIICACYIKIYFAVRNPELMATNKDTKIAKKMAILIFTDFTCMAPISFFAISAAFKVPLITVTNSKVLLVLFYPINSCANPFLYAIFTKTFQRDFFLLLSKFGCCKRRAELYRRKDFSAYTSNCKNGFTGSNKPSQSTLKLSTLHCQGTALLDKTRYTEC
Method: as §1, §2

wt TSHR = target: T4, wt TSHR (Homo sapiens, UniProt P16473); assay: cAMP stimulation by agonist compound C2 at wildtype TSHR with increasing antagonist concentrations; conditions: C2 dose response with increasing antagonist concentrations
T4 construct: expressed in transfected cells
T4 sequence (P16473 21-764): as the sequence (P16473 21-764) above
Method: as §1
Moreover, a Schild plot analysis provided first interesting hints that S37 might compete with the binding site of TSH, since increasing concentrations of added S37 led to a right shift of the TSH dose response curve (FIG. 5A) and to a linear Schild plot (FIG. 5B). S37 seems not to compete with the transmembrane binding site of the previous reported agonist compound 2 (Neumann et al. 2009), since increasing concentrations of added S37 led to diminished maximal values of the dose response curve for compound 2 by unchanged EC50 value (FIG. 5C).

TSHR [2] = target: T1, TSHR; assay: Primary screening, Enzyme Fragment Complementation (EFC) cAMP assay in CHO-K1-TSHR cells; conditions: 50 μM; after hit validation and exclusion of false positives
Method: Primary screening was performed using an Enzyme Fragment Complementation (EFC) technology. CHO-K1-TSHR cells (15000/well in a 384 well plate) were treated with 50 μM of each of the 16544 compounds of the ChemBioNet compound library of the Leibniz-Institut fuer Molekulare Pharmakologie (FMP), Berlin, Germany. EFC technology uses two fragments of one enzyme: an enzyme acceptor (EA) and an enzyme donor (ED). ED is labeled to (synthetic) cAMP. […] In this assay, free cAMP from cell lysates and ED-labeled cAMP compete for antibody binding sites. Unbound ED-cAMP is free to complement EA to form active enzyme, which subsequently produces a luminescent signal. Thus the luminescence signal increases with rising level of intracellular cAMP. All assay components were used after the manufacturer's protocol.
Hits were validated by dose-response curves using the EFC assay.
False-positive hits could be excluded by stimulating CHO-K1 cells without TSHR with Forskolin (23.4 μM) followed by addition of the compound of interest. Forskolin activates the Adenylyl-cyclase directly. Inhibition of this effect excludes the interaction between TSHR and compound.
For the implementation of the primary screen the Enzymes Fragment Complementation Technology (EFC) was selected.

Δ1-408-TSHR = target: T5, Δ1-408-TSHR (Homo sapiens, UniProt P16473); assay: cAMP radioimmunoassay at ectodomain-truncated TSHR construct stimulated by compound 2; conditions: Δ1-408-TSHR lacking the ectodomain
T5 construct: This short construct (Δ1-408-TSHR.GFP) only consists of the transmembrane region; expressed in transfected cells
T5 sequence (P16473 409-764, stated change not applied): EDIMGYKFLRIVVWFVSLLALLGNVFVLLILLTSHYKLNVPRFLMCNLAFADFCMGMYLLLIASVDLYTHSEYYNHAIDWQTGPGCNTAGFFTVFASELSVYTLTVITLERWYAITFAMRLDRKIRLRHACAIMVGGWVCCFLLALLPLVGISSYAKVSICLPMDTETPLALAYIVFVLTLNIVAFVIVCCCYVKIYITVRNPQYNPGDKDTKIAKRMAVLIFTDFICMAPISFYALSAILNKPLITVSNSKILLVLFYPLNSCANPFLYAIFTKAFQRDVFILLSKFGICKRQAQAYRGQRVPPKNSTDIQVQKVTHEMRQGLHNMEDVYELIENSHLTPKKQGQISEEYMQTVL
Description: Ectodomain-truncated TSHR construct (Δ1-408-TSHR.GFP) was generated using quick change site-directed mutagenesis and restriction digestion to excise the desired fragment of the TSHR sequence. The DNA sequence encoding the truncated TSHR mutant was inserted into the GFP-N1 vector. The construct was fused C-terminally with GFP and N-terminally with a FLAG tag. The FLAG tag was inserted by overlap-extension PCR. A HEK-293 cell line stably expressing this construct was generated. Shortly, cells were transfected with Polyethylenimine and plasmid DNA in a 2:1 ratio in serum free medium (DMEM). Cells were selected with medium containing 400 μg/ml G418 for several weeks and then a polyclonal population was selected for GFP fluorescence in a cell sorting device (BD FACSAria II flow cytometer). Cell surface expression was confirmed by confocal laser-scanning microscopy (GFP fluorescence) and flow cytometry using anti-FLAG M2 (Sigma).
HEK-293 cells stably expressing TSHR, FSHR, LHGCR or CRF1R were cultured for 48 h and stimulated for 1 h at 37° C. with stimulation buffer (DMEM supplemented with 10 mM HEPES, 0.5% BSA, 0.25 mM 3-isobutyl-1-methylxanthine) containing the ligands as indicated. […] After reconstitution and acetylation of the samples (Jäschke et al. 2006), the cAMP content was determined using cAMP-^125I-tyrosyl methyl ester (10,000 cpm, IBL) and polyclonal rabbit anti cAMP antibodies. […]

[3] = test system: Hek293 cell line stably expressing TSHR; assay: Toxicity test, alamar blue cell vitality; conditions: 10 μM-100 μM
Method: The vitality of the cells was measured by the alamar blue test using Hek293 cell line stably expressing TSHR. Untreated cells and DMSO-treated cells (0.2% DMSO) were used as control.
Therefore, we conclude that substance S37 is not toxic for the concentration range evaluated by this assay.

| Compound | Antagonistic effect (cAMP inhibition) on TSHR (TSHR [1]) | Mode of antagonism vs. TSH (Schild analysis) (TSHR [1]) | antagonistic activity (% inhibition) (TSHR [1]) | IC50 (TSHR [1]) | Antagonistic effect (cAMP inhibition) on FSHR (FSHR) | Antagonistic effect (cAMP inhibition) on LHCGR (LHCGR) | Mode of antagonism vs. C2 (wt TSHR) | Primary screen hit: cAMP production induced by thyrotropin (TSHR [2]) | TSHR selectivity versus homologous receptors LHCGR and FSHR (TSHR [1]; from cAMP inhibition at TSHR, FSHR, LHCGR at 50 μM) | Mode of antagonism vs. C2 at truncated construct (Δ1-408-TSHR) | Toxicity (cell vitality, alamar blue) [3] |
| --- | --- | --- | --- | --- | --- | --- | --- | --- | --- | --- | --- |
| O=C1C2C3C=CC(C3)C2C(=O)N1c1ccc(N2CCN(c3cccc(C(F)(F)F)c3)CC2)c([N+](=O)[O-])c1 (stereo not drawn) [Compound S9] | unspecifically inhibits all three receptors | non-competitive antagonism | 75% | 18.7 µM and 18.6 µM | unspecifically inhibits all three receptors | unspecifically inhibits all three receptors | non-competitive antagonism | potentially abolishing cAMP production |  |  |  |
| O=C1[C@@H]2[C@H]3C[C@H]([C@@H]4Sc5[nH]c(=O)sc5[C@@H](c5ccccc5)[C@H]34)[C@@H]2C(=O)N1c1ccccc1 (racemic) [Compound S37, (4aS,5S,5aR,8aR,9R,9aS,10R)-7,10-diphenyl-3,4a,5,5a,8a,9,9a,10-octahydro-5,9-methanothiazolo[5′,4′:5,6]thiopyrano[2,3-f]isoindole-2,6,8(7H)-trione] | inhibits TSHR comparable to the reference compound 2-7(NIH) | competitive antagonism | 70% | 28 µM |  |  | non-competitive antagonism |  | highly TSHR-selective | non-competitive antagonism | not toxic |
| Cc1ccc(N2C(=O)C3C4CC(C3C2=O)C2C(c3ccccc3)c3sc(=O)[nH]c3SC42)cc1 (stereo not drawn) [Compound S4] | inhibits TSHR and FSHR activation |  | 63% | 48.9 µM and 49 µM | inhibits TSHR and FSHR activation |  |  | potentially abolishing cAMP production |  |  |  |
